This is an account of results in patent publication US20140243415A1, “COMPOUNDS INHIBITING GALECTIN-1 EXPRESSION, CANCER CELL PROLIFERATION, INVASION, AND TUMORIGENESIS” (ONCOETHIX SA, priority 2011, published 2014).

For data set [1], the system named is DLD-1TR21 colon cancer cells. As to the kind of experiment: Antiproliferative effects, SNAIL-inducible model. The following applies: SNAIL-inducible DLD-1TR21. Type of data set: cell-based, human. From the text:
FIG. 2. Epithelial-to-mesenchymal differentiation and OTX-008 sensitivity. A—Correlations between galectin-1 (LGALS1) and vimentin, E-cadherin (CDH1) and N-cadherin (CDH2) relative mRNA expression. B—Correlations between OTX-008 IC50s and vimentin, E-cadherin (CDH1) and N-cadherin (CDH2) relative mRNA expression. C—Antiproliferative effects of OTX-008 in epithelial COLO205-S and mesenchymal COLO205-R colon cancer cells. D—Antiproliferative effects of OTX-008 in SNAIL-inducible colon cancer cell lines. E—Antiproliferative effects of OTX-008 in shWISP breast cancer cell lines.
Cell survival was determined using the MTT assay (3-[4,5-dimethylthiazol-2-yl]-2,5-diphenyltetrazolium bromide; Sigma, Saint-Quentin Fallavier, France). The conversion of yellow water-soluble tetrazolium MTT into purple insoluble formazan is catalyzed by mitochondrial dehydrogenases and used to estimate the number of viable cells. In brief, cells were seeded in 96-well tissue culture plates at a density of 2×10^3 cells/well. […] After incubation, the supernatant was discarded, insoluble formazan precipitates were dissolved in 0.1 ml of DMSO and the absorbance was measured at 560 nm by use of a microplate reader (Thermo, France). […] IC50's were determined as the halves of maximal inhibitory drug concentration for each cell line. […]

Another data set deals with γH2AX. As to the kind of experiment: γH2AX expression. Type of data set: cell-based, human.
For another data set, the system named is p-ERK1/2. Put plainly: Western blot of signaling in SQ20B cells. It is filed as cell-based, human. The following applies: 3 μM OTX-008, 10 min to 24 h. Here is the method:
(§1) FIG. 3. Effects of OTX-008 on galectin-1 expression and localization. A—Western Blot of galectin-1 on SQ20B cells treated with 3 μM OTX-008 for 24 h, 48 h and 72 h. B and C—Immunofluorescence of galectin-1 on SQ20B cells treated with 3 μM OTX-008 for 24 and 48 h. B—OTX-008 treatment decreases galectin-1 immunostaining in SQ20B cells. C—Galectin-1 translocates into the nucleus after OTX-008 exposure. D—Western Blot of p-AKTser473, AKT, p-S6, p-ERK1/2, ERK and p-PKCα in SQ20B cells treated with 3 μM OTX-008 for 10 min, 1 h, 2 h, 5 h and 24 h.
(§2) Cells were lysed in buffer containing 50 mM HEPES (pH 7.6), 150 mM NaCl, 1% Triton X-100, 2 mM sodium vanadate, 100 mM NaF, and 0.4 mg/ml phenylmethylsulfonyl fluoride. Equal amounts of protein (30 μg/lane) were subjected to SDS-PAGE and transferred to nitrocellulose membranes. Membranes were blocked with 5% milk in 0.05% Tween 20/phosphate-buffered saline and then incubated with the primary antibody overnight. Membranes were then washed and incubated with the secondary antibody conjugated to horseradish peroxidase. Bands were visualized by using the enhanced chemiluminescence Western blotting detection system. Densitometric analysis was performed under conditions that yielded a linear response. The following antibodies were used: anti-p-cdc2 (tyr15), anti-p-wee1 (ser642), anti-p-p44/42 MAPK (thr202/tyr204), anti-p44/42, anti-p-AKT (ser473), anti-AKT, anti-p-S6 (ser235/236) (Cell Signaling, Saint Quentin Yvelines, France), anti-p-PKCα (ser657) (BD Biosciences, Le-Pont-de-Claix, France) and anti-galectin-1 (Abcam, Cambridge, Mass., USA). All antibodies were used at a 1:1000 dilution.
(§3) Intracytoplasmic galectin-1 was previously shown to stabilize intracellular GTP-Ras conformation, facilitating Ras downstream signaling. Signaling events following OTX-008 exposure in SQ20B cells displaying no EGFR, K-Ras, and B-Raf mutation were investigated (FIG. 5A).

Another data set relates to p-AKT. As to the kind of experiment: Western blot of signaling in SQ20B cells. The conditions noted are these: 3 μM OTX-008, 10 min to 24 h. It is filed as cell-based, human. The protocol:
as §1, §2, §3
In general terms: In western blotting, separated proteins are transferred to a membrane and probed.

In the next data set the test system is p-S6. Put plainly: Western blot of signaling in SQ20B cells. It is filed as cell-based, human. The conditions noted are these: 3 μM OTX-008, 10 min to 24 h. The protocol:
as §1, §2, §3

The subject of another data set is cultured fibroblasts. Put plainly: Antiproliferative effect in fibroblasts. It is filed as cell-based.
A further data set deals with T1, galectin-1 (Homo sapiens, UniProt P09382).
T1 construct: Western Blot of galectin-1 on SQ20B cells treated with 3 μM OTX-008 for 24 h, 48 h and 72 h; endogenous in cells; host or cells: SQ20B (ATCC)
T1 sequence (P09382 whole entry): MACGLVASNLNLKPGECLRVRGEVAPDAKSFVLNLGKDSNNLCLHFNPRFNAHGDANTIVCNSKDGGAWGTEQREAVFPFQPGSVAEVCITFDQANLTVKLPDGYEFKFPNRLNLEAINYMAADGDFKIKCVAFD
As to the kind of experiment: Western blot of galectin-1 in SQ20B cells. It is filed as cell-based. The following applies: 3 μM OTX-008, 48 and 72 h exposure. Here is the method:
as §1
FIG. 4. OTX-008-induced galectin-1 oxydation and degradation by the proteosome system A—Western Blot of galectin-1 on SQ20B cells treated 48 h with 10 μM N-acetylcysteine (NAC), 55 μM β-mercaptoethanol (βME), 1 mM Tempol and 10 μM co-enzyme Q10 (Q10) with or without 3 μM OTX-008. B—Western Blot of galectin-1 on SQ20B cells treated 48 h with 3 μM OTX-008, pretreated 2 h with proteasome inhibitor Bortezomib (10 nM) and then treated 48 h with 3 μM OTX-008 (BTZ—OTX-008) or treated 48 h with 10 nM Bortezomib+3 μM OTX-008 (BTZ+OTX-008).
Cells were lysed in buffer containing 50 mM HEPES (pH 7.6), 150 mM NaCl, 1% Triton X-100, 2 mM sodium vanadate, 100 mM NaF, and 0.4 mg/ml phenylmethylsulfonyl fluoride. Equal amounts of protein (30 μg/lane) were subjected to SDS-PAGE and transferred to nitrocellulose membranes. […]

As to `CN(C)CCNC(=O)COc1c2cccc1Cc1cccc(c1OCC(=O)NCCN(C)C)Cc1cccc(c1OCC(=O)NCCN(C)C)Cc1cccc(c1OCC(=O)NCCN(C)C)C2` [OTX-008], the “effect of SNAIL induction on sensitivity” value in data set [1] was “no impact on sensitivity”. In the data set on γH2AX, the γH2AX expression result was “no direct effects”. The p-ERK1/2 activity result in the data set on p-ERK1/2 was “progressively but sustainably inhibited p-ERK1/2 activity”. In addition, the “AKT ser473 phosphorylation” value in the data set on p-AKT was “transient activation of AKT^s473 followed by a complete and sustained inhibition of p-AKT”. Moreover, the p-S6 entry with p-S6 is “complete and sustained inhibition”. The antiproliferative effect entry with cultured fibroblasts is given as “no antiproliferative effect”. The galectin-1 protein expression entry on galectin-1 is “decreased galectin-1 protein expression”.
